Results as given in patent US6747009B2, “Peptidomimetic glutathione analogs” (Universiteit Leiden, priority 2002, dated 2004).
Numbered stars: 1 amine (or outer) side, 2 acyl side, 3 side chain; on linkers, the order of the positions; unused ones are H or OH. Square brackets hold non-standard residues; d marks the D form. Peptide text beside a SMILES is read from it. * marks the point of attachment. ξ: configuration not given here. γGlu = O=C(O)[C@H](CCC(=O)[*:2])N[*:1]; ξPhg = NC(C(=O)O)c1ccccc1; Bn = c1ccc(C*)cc1

Tests used:
JNK in MTLn3 cells = experiment: JNK activation (phospho-JNK immunoblot); type: cell-based; conditions: MTLn3/Neo and MTLn3/GSTπ; 50 μM Et2-RP-Bzl, Et2-UrP-Bzl or 20 μM TER199; 8 hours
Method: Confluent monolayers of VCREMS, MTLn3/Neo (3 clones) and MTLn3/GSTπ (3 clones) cells in 12-well culture dishes were exposed for 8 or 16 hours to 50 μM of Et2-RP-Bzl, Et2-UrP-Bzl or 20 μM TER199 (all di-ethyl esters) in full medium at 37° C. Cells were then washed and subsequently scraped in ice-cold PBS. For MTLn3 cells, suspensions of the three different neo and three different GSTπ clones were combined. After centrifugation (10 min, 250 g, 4° C.), the cells were lysed by ultrasonication in cold TSB (10 mM Tris, 250 mM sucrose, 1 mM EGTA, pH 7.4), containing protease inhibitors (50 mM Na3VO4, 10 μg/ml leupeptin, 10 μg/ml pepstain, 1 mM phenylmethylsulfonylfuloride). Protein concentration was determined using the Bradford protein assay, using IgG as a standard.
For GSTπ blotting, non-reducing and non-denaturing conditions were used to keep GSTP in its original (homodimer) state. JNK blots were subjected to standard Western blotting sample pre-treatment protocols. Twenty micrograms of total cellular protein was separated by SDS-polyacrylamide gel electrophoresis and subsequently transferred to polyvinylidene difluoride membrane (Millipore). […] Active JNK was detected by an alkaline phosphatase coupled goat antibody, which was visualized with the Tropix kit (PerkinElmer Life Sciences).

[1] = test system: rat liver cytosolic GSTs (S100); experiment: Inhibition of rat liver cytosolic GSTs (S100), CDNB conjugation; type: biochemical; conditions: S100, 1 mM GSH, 1 mM CDNB, pH 6.5, six inhibitor concentrations
Method: Inhibition of GST mediated CDNB-conjugation was tested at pH=6.5, in the presence of non-limiting concentrations of GSH (1 mM) and CDNB (1 mM). The shown data are averages of three separate determinations. For clarity, error-bars were not included. […] Open markers with dotted lines indicate γGT sensitive compounds, closed markers with closed lines are γGT stabilized structures.
Freshly isolated rat livers were emulsified in 0.1M KCl using a Potter-Elvehjem homogeniser. After initial centrifugation for 30 minutes at 9000 g, the resulting supernatant was subjected to a second centrifugation for 75 minutes at 10^5 g. The cytosolic protein containing supernatant (S100) was used for the GST inhibition experiments. GST inhibition experiments were performed. All solutions were kept on ice until use. Various concentrations of the inhibitions were incubated at 37° C. with rat liver cytosol (1 μl, containing […] of total protein) in sodium-phosphate buffer, pH 6.5, supplemented with 0.1 mM EDTA and 1 mM GSH. Reaction was started by adding 4 μL CDNB in ethanol (final concentration=1 mM, maximal ethanol content=2% v/v). Formation of the GS-CDNB conjugate was followed at 340 nm for 5 minutes. Initial reaction velocities were corrected for the spontaneous (not GST catalyzed) reaction rates. Inhibition was determined as percentage of the non-inhibited reaction rate. Experiments were performed three times with duplicate measurements.
GST inhibition was tested at six concentrations of the GS-EA mimics.

[2] = test system: bovine kidney γ-glutamyl transpeptidase; experiment: Stability towards γ-glutamyl transpeptidase (RP-HPLC disappearance of parent); type: in vitro ADME; conditions: pH 7.4
Method: Peptide isosteres were incubated with 0.25 mg/ml bovine γ-glutamyltranspeptidase in 0.1M Tris-HCl buffer pH=7.4. At the appropriate time-point a sample (100 μL) was taken, heat inactivated and stored on ice until HPLC analysis. Disappearance of the indicated compounds was determined by RP-HPLC. Open markers indicate γGT sensitive compounds, closed markers are γGT stabilized.
The rate of degradation was determined by incubating 250 μM of GluPhg-Benzyl, RedPhg-Benzyl and UtPhg-Benzyl at 37° C. with 0.25 mg/ml bovine kidney γ-glutamyl transpeptidase in 0.1 M Tri-HCl buffer, pH 7.4, supplemented with 0.1 mM EDTA. At selected time-intervals, a 100 μL sample was taken, heat-inactivated, and stored on ice until HPLC-analysis. Analysis was performed by RP-HPLC on an Altech Platinum C18 column, using 50 mM ammonium acetate buffer pH 3.8, supplemented with 10-20% acetonitrile (optimized for the various peptide analogues) as eluent. Disappearance of the parent peak was determined by UV absorbency at […]. Remaining percentage of the parent compounds was determined as ratio of peak areas relative to the initial (t=0min) value.
The rate of degradation was determined by incubating 250 μM of the GS-EA analogues at 37° C. with 0.25 mg/ml bovine kidney γ-glutamyltranspeptidase in 0.1M Tris-HCl buffer, pH=7.4, supplemented with 0.1mM EDTA. At selected time-intervals, a 100 μL sample was taken, heat-inactivated, and stored on ice until HPLC-analysis. Analysis was performed by RP-HPLC on an Alltech Platinum C18 column, using 50mM ammonium acetate buffer pH=3.8, supplemented with 10-20% acetonitrile (optimized for the various peptide analogues) as eluent. Disappearance of the […] peak and emergence of the corresponding dipeptide-EA conjugate was detected by UV absorbency at 270 nm. Remaining percentage of the parent compounds was determined as ratio of peak areas relative to the initial (t=0 min) value. Results were corrected for non-peptidase mediated degradation of the ethacrynic acid conjugates.

human GSTM1-1 = biological target: T1, human GSTM1-1 (Homo sapiens, UniProt P09488); experiment: GST inhibition assay (CDNB conjugation), Ki determination; type: biochemical; conditions: human recombinant GSTM1-1; ± SD; 50 μM inhibitor, 50 μM-4 mM GSH, 1 mM CDNB, pH 6.5
T1 construct: purchased PanVers Corporation (Madison, Wis., USA)
T1 sequence (P09488 2-218 limits assumed): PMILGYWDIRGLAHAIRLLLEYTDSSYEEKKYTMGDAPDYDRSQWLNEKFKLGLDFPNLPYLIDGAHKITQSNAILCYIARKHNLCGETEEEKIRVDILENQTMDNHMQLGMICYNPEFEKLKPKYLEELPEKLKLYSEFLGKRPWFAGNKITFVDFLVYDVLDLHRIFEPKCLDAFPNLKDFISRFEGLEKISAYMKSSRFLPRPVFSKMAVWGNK
Method: (§1) Human recombinant GST isoenzymes A1-1, M1-1 and P1-1 were used for the GST inhibition assays. Experiments were performed according to Habig et al; (1974), J. Biol. Chem. 249, 7130-7139, modified for a 96-wells plate-reader assay. The purified human GST isoenzymes (10-20 ng/ml) were incubated with or without inhibitor (50 μM) in the presence of 8 different concentrations (50 μM-4 mM) GSH at 37° C. in 0.1 M potassium phosphate buffer pH 6.5/1 mM EDTA. The reaction was initiated by addition of CDNB in ethanol (final concentration 1 mM, 1% ethanol in assay mix), after which the formation of GS-DNB was spectrophotometrically monitored at 340 nm. Reaction rates were corrected for the non-enzymatic conjugate formation. Kt values (table 1) were determined using the Km, app method according to Kakkar et al. (1999), Drug Metab. Dispos. 27, 756-762; Kakkar et al. (2000), J. Pharmacol. Exp. Ther. 293, 861-869. Experiments were performed three times with quadruple measurements.

human GSTA1-1 = biological target: T2, human GSTA1-1 (Homo sapiens, UniProt P08263); experiment: as above; type: biochemical; conditions: human recombinant GSTA1-1; ± SD; 50 μM inhibitor, 50 μM-4 mM GSH, 1 mM CDNB, pH 6.5
T2 construct: purchased PanVers Corporation (Madison, Wis., USA)
T2 sequence (P08263 1-222): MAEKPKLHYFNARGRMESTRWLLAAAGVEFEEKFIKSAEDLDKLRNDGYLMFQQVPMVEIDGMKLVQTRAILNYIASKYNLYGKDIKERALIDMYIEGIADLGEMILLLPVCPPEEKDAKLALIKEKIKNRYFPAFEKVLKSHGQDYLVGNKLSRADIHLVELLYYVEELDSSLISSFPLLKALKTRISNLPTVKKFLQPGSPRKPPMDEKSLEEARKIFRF
Method: as §1

human GSTP1-1 = biological target: T3, human GSTP1-1 (Homo sapiens, UniProt P09211); experiment: GST inhibition assay (CDNB conjugation), Ki and % inhibition; type: biochemical; conditions: for inhibition at 50 µM: 1 mM GSH, 1 mM CDNB, 50 μM inhibitor, relative to non-inhibited rate
T3 construct: purchased PanVers Corporation (Madison, Wis., USA)
T3 sequence (P09211 2-210 limits assumed): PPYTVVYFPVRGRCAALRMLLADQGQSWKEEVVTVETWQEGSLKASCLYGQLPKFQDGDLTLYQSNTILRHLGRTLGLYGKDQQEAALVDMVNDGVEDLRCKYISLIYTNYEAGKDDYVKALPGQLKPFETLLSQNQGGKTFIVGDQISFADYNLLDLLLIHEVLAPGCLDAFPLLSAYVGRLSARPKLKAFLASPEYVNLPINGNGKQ
Method: as §1

MTLn3/Neo cells = experiment: Modulation of thiotepa cytotoxicity (cell proliferation by DNA content); type: cell-based; conditions: read-out: IC50 value of thiotepa, No Inh
Method: (§2) Cells (MCF7, VCREMS, 3 MTLn3/neo clones and 3 MTLn3/GSTP1-1 clones) were seeded at 10^4 cells/well in 24-wells polyethylene culture dishes. […] Various concentrations (3 μM-10 mM) of thiotepa (in serum-free medium) were added. After 4 hrs at 37° C., cells were washed twice with PBS, and subsequently incubated for 72 hours in culture medium (in absence of inhibitor). The cells were then rinsed once with BPS and lysed by repeated freeze-thaw cycles in 200 μl water, followed by homogenization on a rotary shaker. […] Stained DNA was measured by spectrofluorometry (excitation: 360 nm, emission 465 nm). A calibration curve of calf thymus DNA was used to determine total DNA quantities. Growth curves were calculated using the IC50 module of the enzyme kinetics program Grafit (version 3.0, Erithacus Software Ltd.).

VCREMS cells = experiment: as above; type: cell-based; conditions: read-out: IC50 value of thiotepa, No Inh
Method: as §2

MTLn3/GSTπ cells = experiment: as above; type: cell-based; conditions: read-out: IC50 value of thiotepa, No Inh
Method: as §2

MCF7 cells = experiment: as above; type: cell-based; conditions: Homo sapiens, MCF7, read-out: IC50 value of thiotepa, No Inh
Method: as §2

[3] = 250 μM compound, 0.25 mg/ml bovine kidney γGT, 37° C.

CCOC(=O)[C@@H](N)CCC(=O)N[C@@H](CSCc1ccccc1)C(=O)N[C@@H](C(=O)OCC)c1ccccc1 [TER199]
phospho-JNK (JNK1, JNK2) formation (JNK in MTLn3 cells): a small band appeared just below the 54 kDa active JNK2 band

CN(C(=O)CC[C@H](N)C(=O)O)[C@@H](CS)C(=O)NCC(=O)O [III, γ-Glu[MeCys-Gly-OH]—OH]
inhibition of rat liver cytosolic GSTs (in words) [1]: a decrease in inhibition was seen

CCC(CSC[C@H](NC(=O)CC[C@H](N)C(=O)O)C(=O)NCC(=O)O)C(=O)c1ccc(OCC(=O)O)c(Cl)c1Cl (stereo partly shown) [I, γ-Glu[Cys(EA)-Gly-OH]—OH, reference compound]
stability towards γGT (in words) [2, 3]: cleaved rapidly
time to complete degradation of the GSH backbone by γGT [2, 3]: ≤ 20 min

N[C@@H](CCC(=O)N[C@@H](CSCc1ccccc1)C(=O)NC(C(=O)O)c1ccccc1)C(=O)O (stereo partly drawn) [GluPhg-Benzyl (I), γ-L-glutamyl-L-cysteinyl(benzyl)-D-phenylglycine, reference compound] (γGlu-Cys(Bn)-[ξPhg]-OH)
Ki (human GSTM1-1): 21 ± 4 µM
Ki (human GSTA1-1): 23 ± 6 µM
Ki (human GSTP1-1): 0.8 ± 0.3 µM

N[C@@H](CCCN[C@@H](CSCc1ccccc1)C(=O)NC(C(=O)O)c1ccccc1)C(=O)O (stereo partly shown) [RedPhg-Benzyl (II)]
Ki (human GSTM1-1): 29 ± 6 µM
Ki (human GSTA1-1): 55 ± 11 µM
Ki (human GSTP1-1): 6 ± 3 µM
inhibition at 50 µM (human GSTP1-1): 81%

S=P(N1CC1)(N1CC1)N1CC1 [thiotepa]
IC50 (MTLn3/Neo cells): 164 ± 9 µM
IC50 (VCREMS cells): 2840 ± 1100 µM
IC50 (MTLn3/GSTπ cells): 219 ± 21 µM
IC50 (MCF7 cells): 699 ± 50 µM

H-Glu[Ψ(CH2NH)-Cys(EA)-Gly-OH]—OH [V]
inhibition of rat liver cytosolic GSTs (in words) [1]: efficient γGT stable inhibitors

γ-Glu[Cys(EA)-Src-OH]—OH [II]
inhibition of rat liver cytosolic GSTs (in words) [1]: comparable inhibition pattern to compound I
t½ of γGT mediated hydrolysis [2]: approximately equal to the half-life of GS-EA

N[C@@H](COC(=O)N[C@@H](CSCc1ccccc1)C(=O)NC(C(=O)O)c1ccccc1)C(=O)O (stereo partly shown) [UrPhg-Benzyl (III), H-Glo[Cys(Bzl)-Phg-OH]-OH]
Ki (human GSTM1-1): 16 ± 2 µM
Ki (human GSTA1-1): 29 ± 4 µM
Ki (human GSTP1-1): 3 ± 2 µM
inhibition at 50 µM (human GSTP1-1): 93%

γ-Glu[2-amino-1-mercapto(S-EA)-6-hexanoic acid]-OH [IV]
inhibition of rat liver cytosolic GSTs (in words) [1]: poor inhibitor of cytosolic GSTs
stability towards γGT (in words) [2, 3]: very sensitive towards γGT mediated cleavage

H-Glo[Cys(EA)-Gly-OH]—OH [VI]
inhibition of rat liver cytosolic GSTs (in words) [1]: efficient γGT stable inhibitors
